Here are results for one compound from patent US4219657A, “Dibenzothiophenes” (Hoffmann-La Roche Inc., priority 1977, dated 1980).

SMILES strings stand for the structures.

In experiment [1] the test system is Albino rats of Hart Strain. As to the kind of experiment: anti-inflammatory activity, volume of edema after Mycobacterium butyricum adjuvant injected into the right hind foot. To be noted: Rattus norvegicus, po, dosage of 0.03 gm. p.o., treated daily for 5 consecutive days, edema 96 hours after adjuvant, read-out: ED30 (dose required to produce a 30% reduction in edema). It is filed as in vivo. On the procedure:
The test animals are given 10 mls. of vehicle^1, which contains the test compound per kg. of body weight. The animals are treated daily for 5 consecutive days. Three hours after the first treatment, 0.05 ml. of an 0.5% suspension of heat killed dessiccated Mycobacterium butyricum in U.S.P. olive oil, which has been steam sterilized for 30 minutes, is injected into the right hind foot of each rat. The paw volume is measured immediately after the injection of the adjuvant and again 96 hours later. The difference is recorded as volume of edema. The paw volume is measured by immersion of the paw into a column of mercury to an ink mark exactly at the level of the lateral malleolus. Percent inhibition is calculated by dividing the average control edema minus the average treatment edema by the average control edema times 100. The percent inhibition is plotted against dose on semi-logarithmic probability paper and the dose required to produce a 30% reduction in edema is estimated therefrom and is expressed as ED30.
^1 Hilgar, A. G. and Hummel, D. J.: Endocrine Bioassay Data. No. 1, p. 15, August 1964 (Cancer Chemotherapy National Service Center, N.I.H.)

The test system of experiment [2] is mice. Description: analgesic activity, reaction time of mice on a hot plate. It is filed as in vivo. As to conditions: Mus musculus; male mice; oral; hot plate 55±0.5° C.; combined reaction time average at 30, 60 and 90 minutes. On the procedure:
The method determines the reaction time of mice dropped onto a hot plate maintained at 55±0.5° C. Six groups of male mice (5 mice/group) weighing between 20-30 grams are utilized. The initial reaction time of these mice is determined once, and the reaction time of each group is then averaged. The mice are then administered the vehicle and/or the compound to be tested by the oral, intraperitoneal or subcutaneous route. The average reaction time of each group is determined again at 30, 60 and 90 minutes after compound administration and is compared to controls. Reaction time is recorded as percent changes from control. All groups are averaged before and after treatment. A combined reaction time average (recorded as percent change of reaction time threshhold from controls) for all three periods is plotted against does on graph paper, and a curve is drawn. The ED50 is read from this curve.

Regarding `O=C(O)Cc1ccc2c(c1)sc1ccc(Cl)cc12` [8-chloro-dibenzothiophene-3-acetic acid], the ED30 in experiment [1] amounted to 1.8 mg/kg/day. Also, the 50% effective dose (ED50) in experiment [2] came out at 120 mg/kg.
